Like-named read-outs stand apart in the source and are kept apart here.
Columns and labels:
[1] = cited from earlier work
[2] = test system: herpes simplex virus infection; test: Herpes simplex blister outbreak in two subjects (Example 6); format: in vivo, human; settings: same two subjects
Experimental: Two females ([…]) with a chronic herpes simplex virus infection with frequent outbreaks of blisters on their lips ingested 1000 ml of the water-soluble ginger extract produced according to Example 1 while acutely suffering from large painful blisters.
For past outbreaks, both subjects tried multiple remedies, both pharmaceutical and natural, to treat the blisters. They include Abriva®, tea tree oil, toothpaste, lysine, acyclovir, topical hydrogen peroxide, Vaseline® and Aquafor®.

Q: For `CCCCCCC[C@H](O)CC(=O)CCc1ccc(O)c(OC)c1` [Example 8-gingerol, 8-gingerol], which “Solubility, pH 2 - HCl buffer” value ([1]; pH 2) is on record?
A: >100 μM

Q: What about the “Solubility, pH 4 - citrate buffer” value ([1]; pH 4) of the same compound?
A: >100 μM

Q: What about the “Solubility, pH 7.4 - phosphate buffer” value ([1]; pH 7.4) of the same compound?
A: >100 μM

Q: Which “Solubility, pH 2 - HCl buffer” value ([1]; pH 2 HCl buffer, n = 2) does the source give for `CCCCCCCCC[C@H](O)CC(=O)CCc1ccc(O)c(OC)c1` [Example 10-gingerol, 10-gingerol] here?
A: <10 μM

Q: What about the “Solubility, pH 4 - citrate buffer” value ([1]; pH 4 citrate buffer, n = 2) of the same compound?
A: <10 μM

Q: And the “Solubility, pH 7.4 - phosphate buffer” value ([1]; pH 7.4 phosphate buffer, n = 2)?
A: <10 μM

Q: Which “Solubility, pH 2 - HCl buffer” value ([1]; pH 2 HCl buffer, n = 2) does the source give for `CCCCC/C=C/C(=O)CCc1ccc(O)c(OC)c1` [Example 6-shogoal, 6-shogoal] here?
A: <10 μM

Q: What about the “Solubility, pH 4 - citrate buffer” value ([1]; pH 4 citrate buffer, n = 2) of the same compound?
A: <10 μM

Q: And the “Solubility, pH 7.4 - phosphate buffer” value ([1]; pH 7.4 phosphate buffer, n = 2)?
A: <10 μM

Q: For `Nc1nc2c(ncn2COCCO)c(=O)[nH]1` [acyclovir], which “Relief or healing of blisters in past outbreaks” value (from here on “Relief or healing of blisters”) [2] is on record?
A: None of those remedies provided any noticeable immediate relief or greater healing of the symptoms

Q: With `NCCCC[C@H](N)C(=O)O` [lysine] as the compound, how does the “Relief or healing of blisters” value [2] read?
A: None of those remedies provided any noticeable immediate relief or greater healing of the symptoms

Q: Which “Relief or healing of blisters” value [2] does the source give for `OO` [topical hydrogen peroxide, hydrogen peroxide] here?
A: None of those remedies provided any noticeable immediate relief or greater healing of the symptoms

Q: Which results are given for `CCCCC[C@H](O)CC(=O)CCc1ccc(O)c(OC)c1` [Example 6-gingerol, 6-gingerol]?
A: Solubility, pH 2 - HCl buffer ([1]; pH 2): >100 μM; Solubility, pH 4 - citrate buffer ([1]; pH 4): >100 μM; Solubility, pH 7.4 - phosphate buffer ([1]; pH 7.4): >100 μM
